# Measurements as given in the supplement of paper PMC9663587.
# Key:
# Neratinib/HKI272 [1] = compound: T1, CCOc1cc2ncc(C#N)c(Nc3ccc(OCc4ccccn4)c(Cl)c3)c2cc1NC(=O)/C=C/CN(C)C [Neratinib/HKI272]; test: GR value, 72 h; higher = faster growth (1 = untreated, <0 = killing);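 further: breast cancer and non-malignant breast epithelial lines, nine half-log doses, viable cells counted by Hoechst and LIVE/DEAD dye imaging versus time-zero plates and DMSO controls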
# Flavopiridol [2] = compound: T2, CN1CC[C@H](c2c(O)cc(O)c3c(=O)cc(-c4ccccc4Cl)oc23)[C@H](O)C1 [Flavopiridol]; test: as above
# THZ531 = compound: CN(C)C/C=C/C(=O)Nc1ccc(C(=O)N2CCC[C@@H](Nc3ncc(Cl)c(-c4c[nH]c5ccccc45)n3)C2)cc1 [THZ531]; test: increase in dead-cell fraction, 72 h; higher = more death;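 further: breast cancer cell lines in 384-well plates, stained with Hoechst plus LIVE/DEAD far red dye and imaged, cells above an LDR intensity threshold counted dead, Hoechst-negative corpses included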
# BSJ-03-123 = compound: CC(=O)c1c(C)c2cnc(Nc3ccc(N4CCN(CCOCCOCCOCCNC(=O)COc5cccc6c5C(=O)N(C5CCC(=O)NC5=O)C6=O)CC4)cn3)nc2n(C2CCCC2)c1=O [BSJ-03-123]; test: as above
# [3] = compound: CC(=O)c1c(C)c2cnc(Nc3ccc(N4CCNCC4)cn3)nc2n(C2CCCC2)c1=O; test: as above
# [4] = compound: CCc1cnn2c(NCc3ccc[n+]([O-])c3)cc(N3CCCC[C@H]3CCO)nc12; test: as above
# Neratinib/HKI272 [5] = compound: T1, Neratinib/HKI272; test: as above
# YKL-5-124 = compound: C=CC(=O)Nc1ccc(C(=O)Nc2[nH]nc3c2CN(C(=O)N[C@H](CN(C)C)c2ccccc2)C3(C)C)cc1 [YKL-5-124]; test: as above
# THZ1 = compound: CN(C)C/C=C/C(=O)Nc1ccc(C(=O)Nc2cccc(Nc3ncc(Cl)c(-c4c[nH]c5ccccc45)n3)c2)cc1 [THZ1]; test: as above
# LEE011/Ribociclib = compound: CN(C)C(=O)c1cc2cnc(Nc3ccc(N4CCNCC4)cn3)nc2n1C1CCCC1 [LEE011/Ribociclib]; test: as above
# Flavopiridol [6] = compound: T2, Flavopiridol; test: as above
# [7] = compound: CCN1CCN(Cc2ccc(Nc3ncc(F)c(-c4cc(F)c5nc(C)n(C(C)C)c5c4)n3)nc2)CC1; test: as above
cell line,measurement,setting,value
MDAMB415,GR value,Neratinib/HKI272 [1]; 0.0003162 µM,1.06 GR
same,GR value,Neratinib/HKI272 [1]; 0.001 µM,1.08 GR
same,GR value,Neratinib/HKI272 [1]; 0.003162 µM,1.13 GR
same,GR value,Neratinib/HKI272 [1]; 0.01 µM,1.1 GR
same,GR value,Neratinib/HKI272 [1]; 0.03162 µM,1.06 GR
same,GR value,Neratinib/HKI272 [1]; 0.1 µM,0.989 GR
same,GR value,Neratinib/HKI272 [1]; 0.3162 µM,0.889 GR
same,GR value,Neratinib/HKI272 [1]; 1 µM,0.737 GR
same,GR value,Neratinib/HKI272 [1]; 3.162 µM,0.0984 GR
same,GR value,Flavopiridol [2]; 0.0001 µM,1 GR
same,GR value,Flavopiridol [2]; 0.0003162 µM,1.01 GR
same,GR value,Flavopiridol [2]; 0.001 µM,0.869 GR
same,GR value,Flavopiridol [2]; 0.003162 µM,0.766 GR
same,GR value,Flavopiridol [2]; 0.01 µM,0.972 GR
same,GR value,Flavopiridol [2]; 0.03162 µM,0.821 GR
same,GR value,Flavopiridol [2]; 0.1 µM,0.788 GR
same,GR value,Flavopiridol [2]; 0.3162 µM,0.25 GR
same,GR value,Flavopiridol [2]; 1 µM,-0.298 GR
same,increase in dead-cell fraction,THZ531; 0.0001 µM,0.003
same,increase in dead-cell fraction,THZ531; 0.0003162 µM,0.0003
same,increase in dead-cell fraction,THZ531; 0.001 µM,0.0038
same,increase in dead-cell fraction,THZ531; 0.003162 µM,0.0023
same,increase in dead-cell fraction,THZ531; 0.01 µM,0.0067
same,increase in dead-cell fraction,THZ531; 0.03162 µM,0.0049
same,increase in dead-cell fraction,THZ531; 0.1 µM,0.0372
same,increase in dead-cell fraction,THZ531; 0.3162 µM,0.104
same,increase in dead-cell fraction,THZ531; 1 µM,0.104
same,increase in dead-cell fraction,BSJ-03-123; 0.001 µM,-0.001
same,increase in dead-cell fraction,BSJ-03-123; 0.003162 µM,0.0018
same,increase in dead-cell fraction,BSJ-03-123; 0.01 µM,0.0044
same,increase in dead-cell fraction,BSJ-03-123; 0.03162 µM,0.0034
same,increase in dead-cell fraction,BSJ-03-123; 0.1 µM,0.0066
same,increase in dead-cell fraction,BSJ-03-123; 0.3162 µM,0.0057
same,increase in dead-cell fraction,BSJ-03-123; 1 µM,0.0048
same,increase in dead-cell fraction,BSJ-03-123; 3.162 µM,0.0092
same,increase in dead-cell fraction,BSJ-03-123; 10 µM,0.0219
same,increase in dead-cell fraction,[3]; 0.0003162 µM,0.0016
same,increase in dead-cell fraction,[3]; 0.001 µM,-0.0037
same,increase in dead-cell fraction,[3]; 0.003162 µM,0.0018
same,increase in dead-cell fraction,[3]; 0.01 µM,-0.0004
same,increase in dead-cell fraction,[3]; 0.03162 µM,0.0059
same,increase in dead-cell fraction,[3]; 0.1 µM,0.0074
same,increase in dead-cell fraction,[3]; 0.3162 µM,0.0128
same,increase in dead-cell fraction,[3]; 1 µM,0.0178
same,increase in dead-cell fraction,[3]; 3.162 µM,0.0141
same,increase in dead-cell fraction,[4]; 0.0001 µM,-0.001
same,increase in dead-cell fraction,[4]; 0.0003162 µM,0.0007
same,increase in dead-cell fraction,[4]; 0.001 µM,-0.0017
same,increase in dead-cell fraction,[4]; 0.003162 µM,0.0007
same,increase in dead-cell fraction,[4]; 0.01 µM,0.0031
same,increase in dead-cell fraction,[4]; 0.03162 µM,0.0447
same,increase in dead-cell fraction,[4]; 0.1 µM,0.152
same,increase in dead-cell fraction,[4]; 0.3162 µM,0.12
same,increase in dead-cell fraction,[4]; 1 µM,0.154
same,increase in dead-cell fraction,Neratinib/HKI272 [5]; 0.0003162 µM,-0.0004
same,increase in dead-cell fraction,Neratinib/HKI272 [5]; 0.001 µM,0
same,increase in dead-cell fraction,Neratinib/HKI272 [5]; 0.003162 µM,0.0031
same,increase in dead-cell fraction,Neratinib/HKI272 [5]; 0.01 µM,-0.0015
same,increase in dead-cell fraction,Neratinib/HKI272 [5]; 0.03162 µM,0.0006
same,increase in dead-cell fraction,Neratinib/HKI272 [5]; 0.1 µM,0.0036
same,increase in dead-cell fraction,Neratinib/HKI272 [5]; 0.3162 µM,0.0023
same,increase in dead-cell fraction,Neratinib/HKI272 [5]; 1 µM,0.0057
same,increase in dead-cell fraction,Neratinib/HKI272 [5]; 3.162 µM,0.017
same,increase in dead-cell fraction,YKL-5-124; 0.001 µM,0.0047
same,increase in dead-cell fraction,YKL-5-124; 0.003162 µM,-0.0002
same,increase in dead-cell fraction,YKL-5-124; 0.01 µM,0.0066
same,increase in dead-cell fraction,YKL-5-124; 0.03162 µM,0.0051
same,increase in dead-cell fraction,YKL-5-124; 0.1 µM,0.0109
same,increase in dead-cell fraction,YKL-5-124; 0.3162 µM,0.0176
same,increase in dead-cell fraction,YKL-5-124; 1 µM,0.0019
same,increase in dead-cell fraction,YKL-5-124; 3.162 µM,0.0153
same,increase in dead-cell fraction,YKL-5-124; 10 µM,0.0261
same,increase in dead-cell fraction,THZ1; 0.0001 µM,0.0048
same,increase in dead-cell fraction,THZ1; 0.0003162 µM,0.0014
same,increase in dead-cell fraction,THZ1; 0.001 µM,0.0046
same,increase in dead-cell fraction,THZ1; 0.003162 µM,-0.0013
same,increase in dead-cell fraction,THZ1; 0.01 µM,0.0061
same,increase in dead-cell fraction,THZ1; 0.03162 µM,0.0106
same,increase in dead-cell fraction,THZ1; 0.1 µM,0.0295
same,increase in dead-cell fraction,THZ1; 0.3162 µM,0.0604
same,increase in dead-cell fraction,THZ1; 1 µM,0.13
same,increase in dead-cell fraction,LEE011/Ribociclib; 0.001 µM,0.0085
same,increase in dead-cell fraction,LEE011/Ribociclib; 0.003162 µM,0.0083
same,increase in dead-cell fraction,LEE011/Ribociclib; 0.01 µM,0.01
same,increase in dead-cell fraction,LEE011/Ribociclib; 0.03162 µM,0.0117
same,increase in dead-cell fraction,LEE011/Ribociclib; 0.1 µM,0.0179
same,increase in dead-cell fraction,LEE011/Ribociclib; 0.3162 µM,0.0109
same,increase in dead-cell fraction,LEE011/Ribociclib; 1 µM,0.0253
same,increase in dead-cell fraction,LEE011/Ribociclib; 3.162 µM,0.0174
same,increase in dead-cell fraction,LEE011/Ribociclib; 10 µM,0.0203
same,increase in dead-cell fraction,Flavopiridol [6]; 0.0001 µM,0.0065
same,increase in dead-cell fraction,Flavopiridol [6]; 0.0003162 µM,0.0005
same,increase in dead-cell fraction,Flavopiridol [6]; 0.001 µM,0.0075
same,increase in dead-cell fraction,Flavopiridol [6]; 0.003162 µM,0.0004
same,increase in dead-cell fraction,Flavopiridol [6]; 0.01 µM,-0.0008
same,increase in dead-cell fraction,Flavopiridol [6]; 0.03162 µM,0.002
same,increase in dead-cell fraction,Flavopiridol [6]; 0.1 µM,0.0078
same,increase in dead-cell fraction,Flavopiridol [6]; 0.3162 µM,0.0072
same,increase in dead-cell fraction,Flavopiridol [6]; 1 µM,0.0932
same,increase in dead-cell fraction,[7]; 0.001 µM,0.0027
same,increase in dead-cell fraction,[7]; 0.003162 µM,0.004
same,increase in dead-cell fraction,[7]; 0.01 µM,0.0062
same,increase in dead-cell fraction,[7]; 0.03162 µM,0.015
same,increase in dead-cell fraction,[7]; 0.1 µM,0.0137
same,increase in dead-cell fraction,[7]; 0.3162 µM,0.021
same,increase in dead-cell fraction,[7]; 1 µM,0.0176
same,increase in dead-cell fraction,[7]; 3.162 µM,0.0092
same,increase in dead-cell fraction,[7]; 10 µM,0.0164
